From patent US9968587B2, “Heterocycle analogs of CAI-1 as agonists of quorum sensing in vibrio” (THE TRUSTEES OF PRINCETON UNIVERSITY, priority 2013, dated 2018)
Where two headings read alike, the source gives them in different places.

Columns and labels:
[1] = biological target: V. cholerae CqsS receptor (Vibrio cholerae serotype O1, UniProt Q9KM66); assay: CqsS agonist bioassay (V. cholerae reporter strain MM920, bioluminescence); conditions: for EC50: mean of triplicate analyses; for QS agonist potency (in words) / level of QS activation (in words): CqsS agonist bioassay
V. cholerae CqsS receptor, sequence (Q9KM66 whole entry, looked up): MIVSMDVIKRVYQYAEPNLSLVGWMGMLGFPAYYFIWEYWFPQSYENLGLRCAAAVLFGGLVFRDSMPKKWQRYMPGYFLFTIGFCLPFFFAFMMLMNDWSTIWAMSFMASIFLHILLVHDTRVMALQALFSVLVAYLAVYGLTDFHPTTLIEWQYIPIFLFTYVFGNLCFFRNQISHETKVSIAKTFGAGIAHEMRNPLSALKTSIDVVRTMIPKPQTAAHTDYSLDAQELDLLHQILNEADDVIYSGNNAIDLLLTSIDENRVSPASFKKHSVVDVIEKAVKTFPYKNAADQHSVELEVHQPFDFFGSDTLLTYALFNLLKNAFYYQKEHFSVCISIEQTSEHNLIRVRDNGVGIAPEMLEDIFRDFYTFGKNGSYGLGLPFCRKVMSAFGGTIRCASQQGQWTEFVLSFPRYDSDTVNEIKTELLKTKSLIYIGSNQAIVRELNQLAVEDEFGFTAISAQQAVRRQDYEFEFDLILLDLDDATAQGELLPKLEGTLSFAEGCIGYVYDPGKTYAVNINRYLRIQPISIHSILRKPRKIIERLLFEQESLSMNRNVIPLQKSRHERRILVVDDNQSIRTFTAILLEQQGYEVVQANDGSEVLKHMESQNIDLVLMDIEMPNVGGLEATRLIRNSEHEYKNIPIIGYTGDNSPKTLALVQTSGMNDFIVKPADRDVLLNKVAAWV
Excerpt: The molecules were bioassayed in a system that exploits the V. cholerae quorum sensing circuit. The bioassay used a bacterial reporter strain to measure the QS response. Values for percent of activation correspond to the level of bioluminescence produced in the bacterial reporter strain at saturating concentrations of molecule compared to the maximal levels produced in the presence of a native autoinducer molecule (Ea-CAI-1). […] The EC50 values correspond to the concentrations that are required to activate quorum sensing to its half-maximal level.
DMSO was used as the negative control.
EC50 values were calculated by Prism 5 using standard settings and are described in the Tables and text with the error representing the 95% confidence interval for the calculated EC50 value.
The values for % response described in the Tables and text describe the maximal luminescence change for each of the analogs as a percent of EaCAI-1 or 18 (set at 100%). One of these molecules was included as a positive standard of activity for each of the assays.

HapR = assay: Western blot analysis of HapR production; assay type: cell-based, Vibrio cholerae
Excerpt: (§1) In vivo, HapR is a transcription factor that functions as one of two master QS regulators in V. cholerae. Agonism of CqsS leads to increased production of HapR and HapR, in turn, drives the high-cell density gene expression program, which leads to repression of the expression of genes required for virulence and biofilm formation. […] Conversely, production the major V. cholerae virulence factor, TcpA, (toxin-co-regulated pilis protein subunit A), is repressed by both CAI-1 and compound 18.
(§2) Overnight cultures of V. cholerae CqsA-LuxQ—were diluted 1000-fold in AKI medium containing the indicated compounds. The cultures were grown under static conditions at 37° C. for 4 h and then were shaken for 18 h at 37° C. Cells were collected by centrifugation, TcpA and HapR from different samples were analyzed by Western Blot as described in references.

TcpA = assay: Western blot analysis of TcpA production; assay type: cell-based, Vibrio cholerae; conditions: FIG. 3, DMSO control
Excerpt: as §1, §2

[2] = test system: Vibrio cholerae strain MM920; assay: Cytotoxicity of compound 18 in V. cholerae as assessed by OD600; conditions: FIG. 9, OD600
[3] = EC50, complete bioassay data, error = 95% confidence interval
[4] = read-out: % Response, complete bioassay data, percent maximal bioluminescence with respect to Ea-CAI-1 (100%), error = 95% confidence interval
[5] = EC50, QS agonist activity, reporter strain MM920, 4-hour incubation at 30° C.
[6] = read-out: % Response, Percent maximal bioluminescence with respect to Ea-CAI-1, which is set at 100%

Structure (SMILES) | EC50 [1, 3] [nM] | Emax [1, 4] [%] | QS agonist potency (in words) [1] | also measured
CCCCCCC/C=C/C(=O)c1ccc[nH]1 [Compound 33, (E)-1-(1H-pyrrol-2-yl)dec-2-en-1-one] | 288 ± 92 | 109 ± 31 |  | 
C/C=C(\N)C(=O)CCCCCCCC [Compound 9, (Z)-3-aminododec-2-en-4-one] | 2.6 ± 0.32 | 112 ± 7 | low nM activity | level of QS activation (in words) [1]: full activation; EC50 [1, 5]: 2.6 nM; Emax [1, 6]: 112%
C/C=C(\N)C(=O)CCCCCCCCC [Ea-CAI-1, (Z)-3-aminotridec-2-en-4-one, reference compound] |  | 100 ± 6.6 | low nM activity | level of QS activation (in words) [1]: full activation; EC50 [1, 5]: 4.1 nM; Emax [1, 6]: 100%
C/C=C(\N)C(=O)CCCCCCC [Compound 8, (Z)-3-aminoundec-2-en-4-one] |  | 109 ± 25 |  | Emax [1, 6]: 109%
CCCCCCCCCC(=O)[C@@H](O)CC [CAI-1, (S)-3-hydroxytridecan-4-one] |  |  |  | production of HapR (HapR; 10 μM of CAI-1, FIG. 3, DMSO control): activate production of HapR; production of virulence factor TcpA (TcpA): repressed
CCCCCCCCCC(=O)c1ccc[nH]1 [Compound 17, 1-(1H-pyrrol-2-yl)decan-1-one] | 5170 | 103 ± 91 |  | level of QS activation (in words) [1]: full level of QS response
CCCCCCCCCC(=O)c1cc[nH]c1 [Compound 18, 1-(1H-pyrrol-3-yl)decan-1-one] |  |  |  | production of HapR (HapR; 1 μM of 18, FIG. 3, DMSO control): increased; production of virulence factor TcpA (TcpA): repressed; effect on bacterial growth (in words) [2]: does not inhibit bacterial growth
CCCCCCCCCC(=O)c1cc(C)[nH]c1C [Compound 19, 1-(2,5-dimethyl-1H-pyrrol-3-yl)decan-1-one] | 679 ± 92 | 66 ± 14 | lower agonist activity | 
O=C(CCCCCCc1ccccc1)c1cc[nH]c1 [Compound 28, 7-phenyl-1-(1H-pyrrol-3-yl)heptan-1-one] | 35.8 ± 6.1 | 75 ± 10 |  | 
C/C=C(\N)C(=O)CCCCCCCCCCCC [Compound 11, (Z)-3-aminohexadec-2-en-4-one] | > 5000 | 38 | much less active | EC50 [1, 5]: > 225000 nM; Emax [1, 6]: 38%
CCCCc1ccc(CCC(=O)c2ccc[nH]2)cc1 [Compound 27, 3-(4-butylphenyl)-1-(1H-pyrrol-2-yl)propan-1-one] | 2020 ± 1680 | 75 ± 45 |  | 
CCCCc1ccc(/C=C/C(=O)c2cc[nH]c2)cc1 [Compound 30, 3-(4-butylphenyl)-1-(1H-pyrrol-3-yl)prop-2-en-1-one] | 88.4 ± 24.9 | 54 ± 29 |  | 
CCCCc1ccc(CCC(=O)c2cc[nH]c2)cc1 [Compound 26, 3-(4-butylphenyl)-1-(1H-pyrrol-3-yl)propan-1-one] | 10.9 ± 4.8 | 64 ± 42 |  | 
O=C(Cc1ccc(-c2ccccc2)cc1)c1cc[nH]c1 [Compound 34, 2-([1,1′-biphenyl]-4-yl)-1-(1H-pyrrol-3-yl)ethanone] | > 5000 | 25 | essentially inactive | 
C/C=C(\N)C(=O)CCCCC [Compound 6, (Z)-3-aminonon-2-en-4-one] | 594 ± 319 | 100 ± 57 |  | EC50 [1, 5]: 590 nM; Emax [1, 6]: 100%
O=C(Cc1ccc(-c2ccccc2)cc1)c1ccc[nH]1 [Compound 35, 2-([1,1′-biphenyl]-4-yl)-1-(1H-pyrrol-2-yl)ethanone] | > 5000 | 26 | essentially inactive | 
CCCCCCCCCC(=O)c1c(C)c[nH]c1C [Compound 20, 1(2,4-dimethyl-1H-pyrrol-3-yl)decan-1-one] | 536 ± 80 | 65 ± 16 | lower agonist activity | 
CCCCc1ccc(/C=C/C(=O)c2ccc[nH]2)cc1 [Compound 31, 3-(4-butylphenyl)-1-(1H-pyrrol-2-yl)prop-2-en-1-one] | 731 ± 686 | 45 ± 62 |  | 
O=C(CCCCCCc1ccccc1)c1ccc[nH]1 [Compound 29, 7-phenyl-1-(1H-pyrrol-2-yl)heptan-1-one] | > 5000 | 60 |  | 
